In assay [1] the target is T1, ADCK3 (Homo sapiens, UniProt Q8NI60).
T1 construct: made in house; host or cells: E. coli BL21-derived host (T7 phage) or HEK-293
The experiment in a line: Kinase-tagged phage competition binding assay (qPCR), 382-kinase library.

Assay [2] has as its target T2, PI3KCB (PI3K p110β/p85α (h)) (Homo sapiens, UniProt P42338).
T2 construct: purchased Millipore
The experiment in a line: Commercial kinase activity assay (Millipore, HTRF). It is filed as biochemical. The conditions noted are these: 10 μM test compound. The protocol: LOK (h) was incubated with 8 mM MOPS pH 7.0, 0.2 mM EDTA, 250 μM […], 10 mM MgAcetate and [γ-^33P-ATP] (specific activity approx. 500 cpm/pmol, concentration as required). The reaction was initiated by the addition of the MgATP mix. After incubation for 40 minutes at room temperature, the reaction was stopped by the addition of 3% phosphoric acid solution. 10 μL of the reaction was then spotted onto a P30 filtermat and washed three times for 5 minutes in 75 mM phosphoric acid and once in methanol prior to drying and scintillation counting. PI3K p110β/p85α (h) PI3K (p110β/p85α) (h) was incubated in assay buffer containing 10 μM phosphatidylinositol-4,5-bisphosphate and MgATP (concentration as required). The reaction was initiated by the addition of the MgATP mix. After incubation for 30 minutes at room temperature, the reaction was stopped by the addition of stop solution containing EDTA and biotinylated phosphatidylinositol-3,4,5-trisphosphate. Finally, detection buffer was added, which contains europium-labelled anti-GST monoclonal antibody, GST-tagged GRP1 PH domain and streptavidinallophycocyanin. The plate was then read in time-resolved fluorescence mode and the homogenous time-resolved fluorescence (HTRF®) signal determined according to the formula HTRF=10000×(Em665nm/Em620 nm). […]
(In general: Time-resolved FRET reads energy transfer from a long-lived donor to a nearby acceptor.)

Assay [3] has as its target T3, LOK (h) (Homo sapiens, UniProt O94804).
T3 construct: purchased Millipore
The experiment in a line: Commercial kinase activity assay (Millipore, 33P-ATP filter). The class given is biochemical. As to conditions: 10 μM test compound. The protocol: LOK (h) was incubated with 8 mM MOPS pH 7.0, 0.2 mM EDTA, 250 μM […], 10 mM MgAcetate and [γ-^33P-ATP] (specific activity approx. 500 cpm/pmol, concentration as required). The reaction was initiated by the addition of the MgATP mix. After incubation for 40 minutes at room temperature, the reaction was stopped by the addition of 3% phosphoric acid solution. 10 μL of the reaction was then spotted onto a P30 filtermat and washed three times for 5 minutes in 75 mM phosphoric acid and once in methanol prior to drying and scintillation counting. PI3K p110β/p85α (h) PI3K (p110β/p85α) (h) was incubated in assay buffer containing 10 μM phosphatidylinositol-4,5-bisphosphate and MgATP (concentration as required). The reaction was initiated by the addition of the MgATP mix. After incubation for 30 minutes at room temperature, the reaction was stopped by the addition of stop solution containing EDTA and biotinylated phosphatidylinositol-3,4,5-trisphosphate. Finally, detection buffer was added, which contains europium-labelled anti-GST monoclonal antibody, GST-tagged GRP1 PH domain and streptavidinallophycocyanin. The plate was then read in time-resolved fluorescence mode and the homogenous time-resolved fluorescence (HTRF®) signal determined according to the formula HTRF=10000×(Em665nm/Em620 nm). YSK4 (h) YSK4 (h) was incubated with 8 mM MOPS pH 7.0, 0.2 mM EDTA, 250 […], 10 mM MgAcetate and [γ-^33P-ATP] (specific activity approx. 500 cpm/pmol, concentration as required). The reaction was initiated by the addition of the MgATP mix. After incubation for 40 minutes at room temperature, the reaction was stopped by the addition of 3% phosphoric acid solution. 10 μL of the reaction was then spotted onto a P30 filtermat and washed three times for 5 minutes in 75 mM phosphoric acid and once in methanol prior to drying and scintillation counting. PI4KA (PI4K alpha) The 2× PI4KA (PI4K alpha)/PI Lipid Kinase Substrate mixture was prepared in 20 mM Tris, pH 7.5, 0.4% Triton X-100, 5 mM MgCl2, 0.5 mM EGTA. The final 10 μL Kinase Reaction consisted of 75-300 ng PI4KA (PI4K alpha) and 100 μM PI Lipid Kinase Substrate in 7.5 mM HEPES, 10 mM Tris, pH 7.5, 0.2% Triton X-100, 2.5 mM MgCl2, 0.25 mM EGTA. After the 1 hour Kinase Reaction incubation, 5 μL of Detection Mix consisting of a europium labeled anti-ADP antibody, an Alexa Fluor® 647 labeled ADP tracer, and EDTA (to stop the kinase reaction) was added to the assay well. ADP formed by the kinase reaction (in the absence of an inhibitor) displaced the Alexa Fluor® 647 labeled ADP tracer from the antibody, resulting in a decrease in the TR-FRET signal. […] PI4KB (PI4K beta) The 2× PI4KB (PI4K beta)/PI Lipid Kinase Substrate mixture was prepared in 50 mM HEPES pH 7.5, 0.1% CHAPS, 1 mM EGTA, 4 mM MgCl2. […]

T1 sequence (Q8NI60 163-647): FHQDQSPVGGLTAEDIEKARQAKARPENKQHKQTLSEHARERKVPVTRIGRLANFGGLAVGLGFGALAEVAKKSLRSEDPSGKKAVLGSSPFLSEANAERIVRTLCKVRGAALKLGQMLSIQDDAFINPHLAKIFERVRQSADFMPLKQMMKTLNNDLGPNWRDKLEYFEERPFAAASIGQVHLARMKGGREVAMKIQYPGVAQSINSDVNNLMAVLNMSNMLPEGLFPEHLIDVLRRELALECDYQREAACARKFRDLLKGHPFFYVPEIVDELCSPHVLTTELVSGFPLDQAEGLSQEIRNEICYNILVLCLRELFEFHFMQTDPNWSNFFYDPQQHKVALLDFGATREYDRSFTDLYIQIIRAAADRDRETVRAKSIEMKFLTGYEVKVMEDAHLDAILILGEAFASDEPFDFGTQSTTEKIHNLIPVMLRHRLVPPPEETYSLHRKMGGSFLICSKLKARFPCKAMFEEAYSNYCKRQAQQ
T3 sequence (O94804 whole entry): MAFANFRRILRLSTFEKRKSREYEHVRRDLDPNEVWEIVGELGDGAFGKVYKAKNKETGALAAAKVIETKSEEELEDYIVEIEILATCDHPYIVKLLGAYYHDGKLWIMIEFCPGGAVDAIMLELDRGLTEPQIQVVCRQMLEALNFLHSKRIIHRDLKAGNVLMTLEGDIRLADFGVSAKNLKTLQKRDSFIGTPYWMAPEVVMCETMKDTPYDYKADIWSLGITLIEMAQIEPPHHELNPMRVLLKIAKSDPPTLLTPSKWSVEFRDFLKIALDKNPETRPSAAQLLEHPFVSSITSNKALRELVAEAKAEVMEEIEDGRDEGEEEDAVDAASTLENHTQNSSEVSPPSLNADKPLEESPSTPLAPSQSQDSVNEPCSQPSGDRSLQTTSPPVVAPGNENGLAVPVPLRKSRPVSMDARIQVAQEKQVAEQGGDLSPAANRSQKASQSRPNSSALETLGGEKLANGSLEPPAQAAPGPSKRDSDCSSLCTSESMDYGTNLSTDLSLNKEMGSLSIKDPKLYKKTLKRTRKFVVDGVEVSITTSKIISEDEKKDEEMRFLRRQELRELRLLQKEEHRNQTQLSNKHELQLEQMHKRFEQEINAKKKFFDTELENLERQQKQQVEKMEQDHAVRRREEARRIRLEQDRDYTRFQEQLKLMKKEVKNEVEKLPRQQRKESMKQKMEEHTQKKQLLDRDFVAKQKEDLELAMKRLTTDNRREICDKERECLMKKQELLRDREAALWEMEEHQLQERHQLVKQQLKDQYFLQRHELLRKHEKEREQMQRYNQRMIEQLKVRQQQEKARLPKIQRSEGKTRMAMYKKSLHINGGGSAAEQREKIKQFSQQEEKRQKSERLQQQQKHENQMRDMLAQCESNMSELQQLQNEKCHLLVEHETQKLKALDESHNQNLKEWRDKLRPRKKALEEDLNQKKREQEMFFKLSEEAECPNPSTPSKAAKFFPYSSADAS
T2 sequence (P42338 whole entry): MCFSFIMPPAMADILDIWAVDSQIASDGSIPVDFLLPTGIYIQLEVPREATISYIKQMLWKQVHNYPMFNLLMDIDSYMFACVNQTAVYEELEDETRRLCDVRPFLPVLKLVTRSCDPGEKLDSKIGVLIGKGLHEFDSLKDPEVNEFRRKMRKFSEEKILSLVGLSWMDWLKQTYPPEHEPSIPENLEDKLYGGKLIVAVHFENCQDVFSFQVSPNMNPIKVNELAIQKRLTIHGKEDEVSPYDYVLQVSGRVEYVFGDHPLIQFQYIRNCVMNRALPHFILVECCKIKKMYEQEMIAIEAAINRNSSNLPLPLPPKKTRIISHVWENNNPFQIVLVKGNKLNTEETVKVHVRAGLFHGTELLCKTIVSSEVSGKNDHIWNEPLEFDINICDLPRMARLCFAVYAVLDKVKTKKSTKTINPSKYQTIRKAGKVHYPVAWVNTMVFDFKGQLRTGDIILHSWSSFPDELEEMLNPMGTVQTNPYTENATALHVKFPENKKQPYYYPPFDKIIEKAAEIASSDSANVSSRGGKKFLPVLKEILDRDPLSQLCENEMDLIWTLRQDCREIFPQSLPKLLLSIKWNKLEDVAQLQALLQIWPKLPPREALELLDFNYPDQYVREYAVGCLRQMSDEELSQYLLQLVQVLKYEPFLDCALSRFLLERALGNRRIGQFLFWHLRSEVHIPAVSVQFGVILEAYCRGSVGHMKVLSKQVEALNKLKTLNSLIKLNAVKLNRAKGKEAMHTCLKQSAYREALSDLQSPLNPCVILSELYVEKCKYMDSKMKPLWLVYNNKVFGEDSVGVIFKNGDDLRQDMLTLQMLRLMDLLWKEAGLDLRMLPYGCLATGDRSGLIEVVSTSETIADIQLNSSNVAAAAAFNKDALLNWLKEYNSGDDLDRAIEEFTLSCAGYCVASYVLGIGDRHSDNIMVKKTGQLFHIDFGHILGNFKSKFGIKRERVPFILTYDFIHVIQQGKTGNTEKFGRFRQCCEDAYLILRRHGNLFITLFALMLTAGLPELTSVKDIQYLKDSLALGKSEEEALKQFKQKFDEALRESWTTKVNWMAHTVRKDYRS
T2 sequence (P27986 whole entry partner): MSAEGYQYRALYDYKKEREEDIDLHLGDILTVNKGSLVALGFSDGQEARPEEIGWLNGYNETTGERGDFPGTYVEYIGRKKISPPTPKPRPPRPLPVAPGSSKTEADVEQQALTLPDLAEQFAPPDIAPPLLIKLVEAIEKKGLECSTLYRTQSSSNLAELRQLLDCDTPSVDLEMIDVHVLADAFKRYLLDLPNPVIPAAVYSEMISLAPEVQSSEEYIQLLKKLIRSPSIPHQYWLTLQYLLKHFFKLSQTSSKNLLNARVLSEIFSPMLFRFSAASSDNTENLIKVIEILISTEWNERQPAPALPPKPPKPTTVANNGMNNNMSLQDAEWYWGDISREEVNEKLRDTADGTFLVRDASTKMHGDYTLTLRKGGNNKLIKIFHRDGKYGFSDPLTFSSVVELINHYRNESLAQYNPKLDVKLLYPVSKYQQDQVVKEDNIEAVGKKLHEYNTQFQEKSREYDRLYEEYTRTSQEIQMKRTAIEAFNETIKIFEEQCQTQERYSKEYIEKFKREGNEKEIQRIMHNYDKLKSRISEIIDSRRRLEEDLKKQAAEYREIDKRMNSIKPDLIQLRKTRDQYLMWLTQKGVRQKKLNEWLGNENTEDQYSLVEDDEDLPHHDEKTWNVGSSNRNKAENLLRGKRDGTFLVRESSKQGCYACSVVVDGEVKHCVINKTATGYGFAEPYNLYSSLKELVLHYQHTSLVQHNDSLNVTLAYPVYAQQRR

What is called inhibition is how much of the control response was suppressed. A word on the IC50: it is the concentration at which inhibition is half-maximal. The low end stands for higher potency, the high end for lower potency. As to `Nc1nc(N2CCN(C(=O)COc3ccc(Cl)cc3)CC2)c2nc(-c3cccnc3)sc2n1` [formula (1), 5-amino-7-[4-(4-chlorophenoxyacetyl)piperazin-1-yl]-2-(pyridin-3-yl)thiazolo[5,4-d]pyrimidine], the inhibition at 10 µM in assay [1] (10 μM compound, read-out: % Inhibition of substrate binding) turned out to be 68%. In addition, in assay [1] (stated for the 8 kinases of Table 1), the half-maximal inhibitory concentration (IC50) is under 10 µM. For the same molecule, the Kinase activity in assay [2] is 100 percentage of control; in assay [3] it was 117 percentage of control.

(Values after patent US9301961B2, “Autoimmune and inflammatory disorder therapy” (Katholieke Universiteit Leuven, K.U. Leuven R&D, priority 2011, dated 2016).)
